# In US6482849B1, “Inhibitors of α4β1 mediated cell adhesion” (Tanabe Seiyaku Co., Ltd., priority 1997, dated 2002):
# Like-named read-outs stand apart in the source and are kept apart here.
# Tests used:
# [1] = test system: VLA-4 integrin-dependent eosinophil infiltration; experiment: Dextran pleurisy model (dextran-induced pleural leukocyte infiltration); format: in vivo, C57BL/6 mice; settings: Mus musculus, 4 h post-induction; for change in vivo at 25 mg/kg: 25 mg/kg × 2 iv (0h,+1h relative to dextran); for change in vivo at 50 mg/kg: 50 mg/kg × 2 iv (0h,+1h relative to dextran)
# Method: C57BL/6 mice (Jackson, Bar Harbor, Me.;), 6-8 weeks old, weighing 20-25 g were used throughout. All mice were acclimated for at least 7-14 days after arrival and maintained under controlled temperature (20-22° C.) and a 12 hr daily light cycle (6.00 A.M.-6.00 P.M.). Mice were housed in laminar flow racks and checked biweekly for viral infections (mouse hepatitis virus, minute virus of mice, rodent orphan parvovirus, Sendai) with kits obtained from Oreganon Teknika (Durham, N.C.) using established enzyme-linked immunoabsorbent assays. Mice testing positive for any of the above were omitted from the study. All mice were fed standard laboratory chow (Upjohn Lab Rodent Irradiated Mouse Chow, #5011-3, PMI Feeds, St. Louis, Mo.) and acidified drinking water (pH 5.0) ad libitum.
# Intrapleural injections were made using a 27 G needle cut to 3-4 mm and blunted by filing. Injections were made by inserting the needle between the mid-intercostal ribs on the right side of the thoracic cavity.
# Dextran (MW 5-40×10^6, St Louis, Mo.) was injected as a 10% solution in saline in a volume of 100 μl/mouse. Care was taken to avoid bleeding at the site of injection at which the intercostal muscles were cut to facilitate smooth insertion of the needle.
# Pleural leukocytes were collected as follows: 4 h post-induction, pleural inflammatory exudate was removed by washing with 2×1.0 ml Ca^++/Mg^++ free HBSS (Gibco, Grand Island, N.Y.) containing 45 mg EDTA/100 ml HBSS, 4° C. Total leukocyte counts were made by hemocytometer following erythrocyte lysis in 2% acetic acid in PBS buffer; exudate leukocyte pellets were resuspended in serum for cytospin preparations and stained (Diff Quik, Baxter Healthcare, McGraw Park, Ill.) for differential leukocyte counts (neutrophils, eosinophils, and mononuclear leukocytes).
# The pleural cavities of mice receiving either no intrapleural injection, or saline were washed and the cells counted in the same way to estimate baseline or saline-induced pleural leukocyte counts respectively.
# All drugs were dissolved in PBS and the pH adjusted to 7.5 with NaOH. Each drug was administered intravenously through the retroorbital sinus at hourly intervals (0-3 h) starting from time “0” as indicated.
# The following camphoric acid analogues were tested for their inhibitory effects on dextran-induced leukocyte infiltration: Examples 4, 12, 54, 63, 166, 93, 180, 181, 183, 184, 217, Camphoric acid or PBS (saline) was administered iv. as a control. Inhibition of eosinophil infiltration, which was suppressed by anti-alpha-4 Mab (PS/2, 50%), was used as a readout of VLA-4 antagonist activity of the camphoric acids tested. Data for neutrophils are also reported.
# [2] = target: T1, α4β1 integrin (Jurkat T-cell adhesion to IL-1 stimulated endothelial cell monolayers) (Homo sapiens, UniProt P05556+P13612); experiment: Jurkat-Endothelial Cell Adhesion Assay (Jurkat EC); format: cell-based; settings: Jurkat cells on IL-1 stimulated HUVEC monolayers
# T1 construct: a T-cell line, Jurkat, known to express the α4β1 integrin; host or cells: Jurkat T-cell line
# T1 sequence (P13612 34-1032): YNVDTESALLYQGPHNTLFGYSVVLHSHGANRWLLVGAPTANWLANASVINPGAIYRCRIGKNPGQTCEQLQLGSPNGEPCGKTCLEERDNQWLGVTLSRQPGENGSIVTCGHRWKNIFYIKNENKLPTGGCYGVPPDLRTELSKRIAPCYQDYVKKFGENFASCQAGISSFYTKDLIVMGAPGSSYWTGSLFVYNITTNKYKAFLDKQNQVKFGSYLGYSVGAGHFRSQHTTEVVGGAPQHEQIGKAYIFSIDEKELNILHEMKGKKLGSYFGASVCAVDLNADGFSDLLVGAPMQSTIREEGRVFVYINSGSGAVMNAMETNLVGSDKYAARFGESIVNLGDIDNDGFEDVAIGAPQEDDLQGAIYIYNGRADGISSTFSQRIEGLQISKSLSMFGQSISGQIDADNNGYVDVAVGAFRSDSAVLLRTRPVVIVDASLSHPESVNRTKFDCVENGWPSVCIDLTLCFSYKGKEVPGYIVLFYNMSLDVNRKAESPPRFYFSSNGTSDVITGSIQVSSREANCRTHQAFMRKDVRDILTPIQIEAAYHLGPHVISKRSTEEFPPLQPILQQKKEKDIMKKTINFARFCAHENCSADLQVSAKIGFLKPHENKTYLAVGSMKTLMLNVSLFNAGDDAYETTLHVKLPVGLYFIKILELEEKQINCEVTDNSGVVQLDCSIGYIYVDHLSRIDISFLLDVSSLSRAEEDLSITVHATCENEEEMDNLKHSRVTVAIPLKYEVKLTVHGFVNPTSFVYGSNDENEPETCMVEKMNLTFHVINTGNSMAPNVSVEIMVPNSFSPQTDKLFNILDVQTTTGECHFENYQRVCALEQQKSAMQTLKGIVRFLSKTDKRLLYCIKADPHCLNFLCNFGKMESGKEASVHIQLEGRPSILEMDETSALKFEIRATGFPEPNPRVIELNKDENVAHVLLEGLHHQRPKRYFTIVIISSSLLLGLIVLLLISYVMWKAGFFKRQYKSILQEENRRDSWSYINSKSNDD
# T1 sequence (P05556 21-798): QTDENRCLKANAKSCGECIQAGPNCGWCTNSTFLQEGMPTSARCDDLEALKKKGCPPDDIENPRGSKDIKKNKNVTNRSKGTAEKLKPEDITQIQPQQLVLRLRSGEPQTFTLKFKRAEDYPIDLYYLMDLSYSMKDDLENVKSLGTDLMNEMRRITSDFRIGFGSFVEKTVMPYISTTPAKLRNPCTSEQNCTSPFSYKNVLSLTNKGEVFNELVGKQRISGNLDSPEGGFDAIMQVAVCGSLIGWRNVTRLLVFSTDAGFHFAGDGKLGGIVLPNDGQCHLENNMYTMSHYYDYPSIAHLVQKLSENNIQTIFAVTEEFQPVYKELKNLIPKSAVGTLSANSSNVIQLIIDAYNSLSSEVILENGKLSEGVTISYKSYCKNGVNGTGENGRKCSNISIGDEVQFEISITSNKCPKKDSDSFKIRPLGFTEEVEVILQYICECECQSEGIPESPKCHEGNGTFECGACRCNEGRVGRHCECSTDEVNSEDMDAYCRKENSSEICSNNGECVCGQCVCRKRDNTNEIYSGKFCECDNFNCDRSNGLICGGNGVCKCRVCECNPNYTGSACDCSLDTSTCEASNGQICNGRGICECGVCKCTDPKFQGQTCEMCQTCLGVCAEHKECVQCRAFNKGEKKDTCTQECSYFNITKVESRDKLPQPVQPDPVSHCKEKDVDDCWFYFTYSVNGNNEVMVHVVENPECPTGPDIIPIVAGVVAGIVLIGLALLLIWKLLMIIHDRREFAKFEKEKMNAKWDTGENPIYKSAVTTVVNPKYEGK
# In short: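 BCECF-loaded Jurkat cells (5×10^5) mixed with compound (generally 100, 20, 5 and 1.25 μM) and added to HUVEC monolayers prestimulated 4 hr with 0.1 ng/ml IL-1, in DMEM-HSA. After 5 min on ice and 20 min at 37° C, washed; fluorescence gives % adhesion relative to no-compound control set at 100%.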
# [3] = target: T2, α4β1 integrin (Jurkat cell adhesion to immobilized CS-1 derived peptide CLHPGEILDVPST) (Homo sapiens, UniProt P05556+P13612); experiment: Jurkat-CS-1 Assay; format: cell-based; settings: Jurkat cells on CS-1 peptide coated plates
# T2 construct: 100 μl of Jurkat cells (2.5×10^6 cells/ml) in DMEM plus BSA; endogenous in cells; host or cells: Jurkat T-cell line
# T2 sequence (P13612 34-1032): as the sequence (P13612 34-1032) above
# T2 sequence (P05556 21-798): as the sequence (P05556 21-798) above
# In short: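 CS-1 peptide was SPDP-crosslinked onto HSA-coated plates and blocked with BSA. Jurkat cells (2.5×10^6 cells/ml) in DMEM/BSA were mixed with compound, generally at 100, 20, 5 and 1.25 μM, and allowed to adhere for 1 hr at 37° C. Bound cells were fixed, stained with toluidine blue and quantified by OD590.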
# [4] = test system: contact hypersensitivity response; settings: in vivo; cited from earlier work
# [5] = Eosinophil, read-out: %Δ Pleural Leukocytes, Eos
# [6] = Neutrophil, read-out: %Δ Pleural Leukocytes, Neutro
melting point,IC50 [2],IC50 [3],Compound,"change in vivo at 25 mg/kg [1, 5]","change in vivo at 50 mg/kg [1, 5]","change in vivo at 25 mg/kg [1, 6]","change in vivo at 50 mg/kg [1, 6]",Contact hypersensitivity response [4]
203 to 205 °C,≤ 800 nM,≤ 80 nM,"CC1(C)[C@@H](C(=O)N[C@@H](Cc2ccc(NC(=O)c3c(Cl)cccc3Cl)cc2)C(=O)O)CC[C@@]1(C)C(=O)NCC(N)=O [Example 180, (1S-cis)-N-[[3-[[(2-Amino-2-oxoethyl)amino]-carbonyl]-2,2,3-trimethylcyclopentyl]carbonyl]-4-[(2,6-dichlorobenzoyl)amino]-L-phenylalanine]",-50 to -10%,-50 to -10%,-50 to -10%,-50 to -10%,
,,,EILDV,,,,,blocked
